Source: patent publication US20080227809A1, “Arylalkylamine Vanadium (V) Salts for the Treatment and/or Prevention of Diabetes Mellitus” (GENMEDICA THERAPEUTICS SL, priority 2004, published 2008)
“Also recorded” adds a separate entry of the source.

Assays:
[1] = test system: streptozotocin-induced diabetic rats; assay: chronic subcutaneous (osmotic minipump) treatment, glycemia of streptozotocin (45 mg/kg) diabetic rats; assay type: in vivo, rat; details: for effect on glycemia: 2.5 μmol/kg/day subcutaneous by osmotic minipumps, about two weeks
Method: Insulin concentrations were determined before and after treatment.
The effect of chronic administration of hexaquis(benzylammonium) decavanadate on glycemia from diabetic rats was determined. Thus, diabetes was induced in rats by intravenous administration of streptozotocin, which destroys the β-pancreatic cells that produce insulin.
(§1) Chronic in vivo efficacy of B6V10 was evaluated in streptozotocin-induced diabetic rats and in db/db mice. Streptozotocin-induced (45 mg/kg) diabetic rats were subcutaneously treated with hexaquis(benzylammonium) decavanadate (2.5 μmol/kg) (B6V10, solid squares, FIG. 8A) or with decavanadate (2.5 μmol/kg) (V10, open circles, FIG. 8A) delivered subcutaneously by osmotic minipumps implanted in the dorsal region. Diabetic rats were also sham-operated (untreated, solid diamonds, FIG. 8A). […] These experiments were repeated using an oral administration protocol. Streptozotocin-induced (45 mg/kg) diabetic rats were orally treated with hexaquis(benzylammonium) decavanadate (5 μmol/kg from day 0 to day 7 and 10 μmol/kg/day from day 7 to day 17) (B6V10, solid squares, FIG. 8B) or received decavanadate (10 μmol/kg) (V10, open circles, FIG. 8B). Nondiabetic rats were also untreated (solid triangles, FIG. 8B).

[2] = test system: insulin receptor; assay: tyrosine phosphorylation of insulin receptor in isolated rat adipocytes; assay type: cell-based; details: 25 μM
Method: Isolated fat cells were disrupted for total membrane preparation by hypo-osmotic lysis in a 20 mM HES buffer and an antiprotease and antiphosphatase cocktail as reported by Abella et al. (2003, Diabetes 52: 1004-1013). Protein concentrations were determined by the Bradford method (Bradford, 1976, Anal. Biochem. 72: 248-254) with gamma-globulin as protein concentration standard. Immunoprecipitation and immunoblot assays were performed as previously described by Abella et al. (2004, Id.) with the use of a monoclonal antiphosphotyrosine antibody for the immunoprecipitation and an anti-insulin receptor antibody for immunobloting, respectively. SDS-polyacrylamide gel electrophoresis was performed on membrane proteins following conventional procedures. Proteins were transferred to Immobilon and immunoblotting was performed as reported by Castello et al. (1994, J. Biol. Chem. 269: 5905-5912).
The mechanism of action of B6V10 was investigated in isolated rat adipocytes. Adipose cells from Wistar rats were incubated for different times in the presence of 25 μM hexaquis(benzylammonium) decavanadate (B6V10). […] Subsequently, 2-deoxyglucose uptake (results shown in FIG. 7A), tyrosine phosphorylation of insulin receptor (FIG. 7B), phospho-Thr^308-protein kinase B (FIG. 7C) and phospho-Ser^473-protein kinase B (FIG. 7D) was measured. […]

[3] = test system: db/db mice; assay: chronic treatment of obese diabetic db/db mice, glycemia; assay type: in vivo, mouse
Method: as §1

[4] = test system: high-fat fed mice; assay: glucose tolerance and plasma insulin in high-fat fed mice; assay type: in vivo, mouse
Method: Insulin and glucose responses during the glucose tolerance test were calculated as the incremental plasma values integrated over a period of 120 min after injection of glucose. Areas under curves of insulin and glucose responses were calculated using the Graph Prism program (SOURCE?). Data distribution was analyzed by the Kolmogorov-Smirnov test. Data were presented as mean ±SEM and unpaired Student's t test was used to compare two groups. When experimental series involved more than two groups, statistical analysis was done by one-way or two-way ANOVA and further post-hoc (Dunnett, Tukey or Bonferroni) t tests. Statistical analysis was performed with SPSS 11.0 or GraphPad Prism 4 programs.

## hexaquis(benzylammonium) decavanadate [Example B6V10]
[1]; 2.5 μmol/kg/day subcutaneous
  time of treatment after which reduction of hyperglycemia was detected: four
[1]
  effect on glycemia: significant correction of hyperglycemia; also recorded: significant lowering in blood glucose levels; also recorded: ameliorated hyperglycemia
[1]; listed as hexaquis(benzylammonium) decavanadate
  effect on glycemia: rapid reduction of the hyperglycemia
[1]; Bonferroni post-tests, P<0.01, FIG. 8A
  day of treatment from which glycemia differed significantly from the untreated group: 8
[2]
  tyrosine phosphorylation of insulin receptors: undetectable
[3]
  effect on glycemia: ameliorated glycemia
[4]; acute administration, mice made glucose intolerant by a high fat diet
  plasma insulin levels: improved plasma insulin levels; also recorded: ameliorated the pattern of plasma insulin levels
[4]; high-fat fed mice
  glucose tolerance: amelioration of glucose tolerance
